Here are results for two molecules from patent publication US4351840A, “Antibacterial esters of resorcinol with ampicillin and penicillanic acid 1,1-dioxide derivatives” (priority 1981, dated 1982).

Where two headings read alike, the source gives them in different places. Some results are limits rather than exact numbers.

For experiment [1], the system named is beta-lactamase from Escherichia coli 51A129. Kind of experiment: Inhibition of ampicillin hydrolysis by cell-free beta-lactamase (microiodometric). The format is biochemical. The settings on record: ampicillin 33 μM, pH 6.5, 37° C. On the procedure: (§1) The compounds of the present invention are thus evaluated in vitro by the ability of penicillanic acid 1,1-dioxide derivatives of the formula (IV) to inhibit the hydrolysis of beta-lactam antibiotics by beta-lactamase enzymes. The hydrolysis of ampicillin was determined by the microiodometric method of Novick [Biochem, J. 83, 236 (1962)]. Conditions for this assay are 0.5 M potassium phosphate, pH 6.5 and 37° C. Reactions were initiated by the addition of the cell-free beta-lactamase, except in the case of preincubation experiments in which the inhibitor and enzyme were incubated together in the assay mixture for 10 minutes before initiation of the reaction by addition of substrate. With the cellfree extracts of Staphylococcus aureus, Escherichia coli, Klebsiella pneumoniae and Pseudomonas aeruginosa, the substrate was ampicillin at 33 micro M (13 microg./ml). Typical specific activities of the beta-lactamase preparations were, respectively, 6,019, 88,970, 260 and 76 micromol/hr. per mg. of protein.
(§2) Cell-free extracts were prepared by sonic treatment (using three 30-s bursts at 4° C. except for S. aureus, which was broken with a French press) of cultures grown in brain heart infusion on a rotary shaker incubator. For the S. aureus, P. aeruginose, and E. cloacae strains, de novo synthesis of beta-lactamase was induced by growing a log-phase culture in the presence of a sublethal concentration of penicillin G at 100, 1,000, and 300 microg./ml, respectively, for 2.5 hr.

Experiment [2] relates to beta-lactamase from Klebsiella pneumoniae 53A129. Described as above. The experiment is classed as biochemical. The settings on record: ampicillin 33 μM, pH 6.5, 37° C. On the procedure: as §1, §2
Experiment [3] deals with T1, beta-lactamase from Staphylococcus aureus 01A400 (Staphylococcus aureus, UniProt P00807).
T1 construct: Cell-free extracts were prepared by sonic treatment; endogenous in cells; host or cells: Staphylococcus aureus strain 01A400, induced with penicillin G; cell-free extract by French press
The experiment is described as above. The experiment is classed as biochemical. On the procedure:
as §1, §2

For experiment [4], the system named is Staphylococcus aureus 01A400. Kind of experiment: Minimum inhibitory concentration on BHI agar. The experiment is classed as cell-based. The settings on record: 18 hrs., 37° C., inhibitor alone or 1:1 mixture with ampicillin. On the procedure:
(§3) The procedure which follows is the one recommended by the International Collaborative Study on Antibiotic Sensitivity Testing [Ericcson and Sherris, Acta. Pathologica et Microbiologia Scandinav, Supp. 217, Sections A and B: 64-68 (1971)], and employs brain heart infusion (BHI) agar and the inocula replicating device. Overnight growth tubes are diluted 100 fold for use as the standard inoculum (20,000-10,000 cells in approximately 0.002 ml are placed on the agar surface; 20 ml of BHI agar/dish). Twelve 2 fold dilutions of the test compound are employed, with initial concentration of the test drug being 200 mcg/ml. Single colonies are disregarded when reading tubes after 18 hrs. at 37° C.
(§4) These MIC's are then compared with the MIC values obtained with a combination of ampicillin and the beta-lactamase inhibitor. […] The MIC values of combinations are measured using the method described by Barry and Sabath in "Manual of Clinical Microbiology", edited by Lenette, Spaulding and Truant, 2nd Edition, 1974, American Society for Microbiology.

In experiment [5] the test system is Serratia marcescens 63A095. Kind of experiment: Minimum inhibitory concentration on BHI agar. The experiment is classed as cell-based. The following applies: 18 hrs., 37° C., inhibitor alone or 1:1 mixture with ampicillin. On the procedure: as §3, §4
Experiment [6] deals with Staphylococcus aureus 01A005. Kind of experiment: Minimum inhibitory concentration on BHI agar. The experiment is classed as cell-based. The settings on record: 18 hrs., 37° C., inhibitor alone or 1:1 mixture with ampicillin. On the procedure:
as §3, §4

Experiment [7] deals with Klebsiella pneumoniae 53A079. Kind of experiment: Minimum inhibitory concentration on BHI agar. The format is cell-based. The following applies: 18 hrs., 37° C., inhibitor alone or 1:1 mixture with ampicillin. On the procedure:
as §3, §4

Experiment [8] relates to Pseudomonas aeruginosa 52A104. Kind of experiment: Minimum inhibitory concentration on BHI agar. The experiment is classed as cell-based. The following applies: 18 hrs., 37° C., inhibitor alone or 1:1 mixture with ampicillin. On the procedure:
as §3, §4

The test system of another experiment is Escherichia coli 51A266. Kind of experiment: Minimum inhibitory concentration on BHI agar. The experiment is classed as cell-based. The following applies: 18 hrs., 37° C., inhibitor alone or 1:1 mixture with ampicillin. On the procedure:
as §3, §4

Experiment [9] concerns Citrobacter diversus 70C031. Kind of experiment: Minimum inhibitory concentration on BHI agar. The experiment is classed as cell-based. The following applies: 18 hrs., 37° C., inhibitor alone or 1:1 mixture with ampicillin. On the procedure:
as §3, §4

The next experiment deals with Proteus morgani 57G001. Kind of experiment: Minimum inhibitory concentration on BHI agar. The settings on record: 18 hrs., 37° C., inhibitor alone or 1:1 mixture with ampicillin. The format is cell-based. On the procedure: as §3, §4
In experiment [10] the test system is Enterobacter cloacae 67B009. Kind of experiment: Minimum inhibitory concentration on BHI agar. The experiment is classed as cell-based. The following applies: 18 hrs., 37° C., inhibitor alone or 1:1 mixture with ampicillin. On the procedure:
as §3, §4

Experiment [11] has as its target beta-lactamase from Pseudomonas aeruginosa 52A104 (Pseudomonas aeruginosa, UniProt P24735). Kind of experiment: Inhibition of ampicillin hydrolysis by cell-free beta-lactamase (microiodometric). The experiment is classed as biochemical. The following applies: ampicillin 33 μM, pH 6.5, 37° C., read-out: % Inhibition Beta-Lactam Hydrolysis. On the procedure: as §1, §2

The mark [12] stands for this setting: pH 6.5, read-out: % Inhibition Beta-Lactam Hydrolysis.

T1 sequence (P00807 25-281): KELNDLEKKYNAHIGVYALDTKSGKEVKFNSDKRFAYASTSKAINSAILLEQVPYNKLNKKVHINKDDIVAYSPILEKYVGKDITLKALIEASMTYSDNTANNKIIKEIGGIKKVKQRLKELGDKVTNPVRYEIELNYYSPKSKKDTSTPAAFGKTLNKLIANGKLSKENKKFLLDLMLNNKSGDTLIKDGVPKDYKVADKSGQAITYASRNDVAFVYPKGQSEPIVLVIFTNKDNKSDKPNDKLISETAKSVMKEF
beta-lactamase from Pseudomonas aeruginosa 52A104, sequence (P24735 27-397): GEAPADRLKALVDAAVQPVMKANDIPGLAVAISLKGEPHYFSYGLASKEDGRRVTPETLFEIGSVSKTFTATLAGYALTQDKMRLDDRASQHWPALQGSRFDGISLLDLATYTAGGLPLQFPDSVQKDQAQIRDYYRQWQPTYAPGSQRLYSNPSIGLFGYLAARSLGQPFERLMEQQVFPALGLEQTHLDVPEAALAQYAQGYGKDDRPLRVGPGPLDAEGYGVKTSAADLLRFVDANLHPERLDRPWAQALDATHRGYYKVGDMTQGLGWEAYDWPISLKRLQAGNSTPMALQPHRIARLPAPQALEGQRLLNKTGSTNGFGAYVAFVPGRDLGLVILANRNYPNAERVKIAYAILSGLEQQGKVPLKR

For orientation: inhibition means the drop in the measured response relative to a control, in per cent. In the case of `CC1(C)[C@H](C(=O)O)N2C(=O)[C@@H](CO)[C@H]2S1(=O)=O` [A, 6-beta-(Hydroxymethyl)pencillanic acid 1,1-dioxide], the “% Inhibition Beta-Lactam Hydrolysis” value came out at 92.1% in experiment [1] (inhibitor 0.67 μM); 95.7% in experiment [1] (inhibitor 1.0 μM); 100% in experiment [1] (inhibitor 16.5 μM); 100% in experiment [1] (inhibitor 66 μM); 81.2% in experiment [2] (inhibitor 1.0 μM); 100% in experiment [2] (inhibitor 16.5 μM). Also, in [2] (inhibitor 66 μM), the “% Inhibition Beta-Lactam Hydrolysis” value is on record as 100%. In [3] (inhibitor 1.0 μM, ampicillin 33 μM, pH 6.5, 37° C., read-out: % Inhibition Beta-Lactam Hydrolysis), the inhibition at 1 µM amounted to 39.3%. For the same molecule, in experiment [3] (inhibitor 16.5 μM, ampicillin 33 μM, pH 6.5, 37° C., read-out: % Inhibition Beta-Lactam Hydrolysis), the inhibition at 16.5 µM came to 78.8%. In addition, the inhibition at 66 µM in experiment [3] (inhibitor 66 μM, ampicillin 33 μM, pH 6.5, 37° C., read-out: % Inhibition Beta-Lactam Hydrolysis) is 98.3%.

In general, MIC refers to the lowest concentration that inhibits growth of the organism. Regarding `CC1(C)[C@H](C(=O)O)N2C(=O)C[C@H]2S1(=O)=O` [B, Penicillanic acid 1,1-dioxide], the MIC in experiment [4] was 200 mg/L; in experiment [5], 200 mg/L; in [6], 100 mg/L; in experiment [7] it was 50 mg/L; in [8] it was > 200 mg/L; in the experiment with Escherichia coli 51A266 it was 25 mg/L. Besides, the minimal inhibitory concentration (MIC) turned out to be 200 mg/L in experiment [9], 200 mg/L with Proteus morgani 57G001 and 100 mg/L in experiment [10]. Besides, the “% Inhibition Beta-Lactam Hydrolysis” value in experiment [1] (inhibitor 1.0 μM) is given as 97.0%; in experiment [1] (inhibitor 16.5 μM), 100%; in experiment [1] (inhibitor 66 μM) it was 100%; in experiment [2] (inhibitor 16.5 μM) it was 100%; in experiment [2] (inhibitor 66 μM), 100%. For the same molecule, the figures for the inhibition at 16.5 µM in experiment [11] (inhibitor 16.5 μM) and in [3] (setting [12]) were 5% and 95%, respectively. The inhibition at 66 µM was 27.5% in experiment [11] (inhibitor 66 μM) and 100% in experiment [3] (setting [12]). For the same molecule, the inhibition at 1 µM in [3] (setting [12]) was determined as 0%.
